Results published in US8716242B2, “β-hairpin peptidomimetics” (priority 2009, dated 2014).
Read-outs that look alike come from different tables or passages of the source. Numbered stars: 1 amine (or outer) side, 2 acyl side, 3 side chain; on linkers, the order of the positions; unused ones are H or OH. Bridge positions count the residues as written; N and C are the ends. Square brackets hold non-standard residues; d marks the D form. Peptide text beside a SMILES is read from it. * marks the point of attachment. X2 = CCCCCCCCCC[C@@H](N[*:1])C(=O)[*:2]; Lauroyl = CCCCCCCCCCCC(=O)*; Decanoyl = CCCCCCCCCC(=O)*; Octanoyl = CCCCCCCC(=O)*; Dab = NCC[C@H](N)C(=O)O; Dodecyl = CCCCCCCCCCCC*

What was measured:
[1] = biological target: T1, human CXCR4 (Homo sapiens, UniProt P61073); test: Ca2+-assay: CXCR4-antagonizing activity (SDF-1 induced calcium mobilization); format: cell-based
T1 construct: expressed in transfected cells; host or cells: mouse pre-B cell line 300-19
Description: 2.3. Ca^2+-Assay: CXCR4-Antagonizing Activity of the Peptides
Increases in intracellular calcium were monitored using a Flexstation 384 (Molecular Devices, Sunnyvale, Calif.) to assay the peptides for CXCR4 antagonism in a mouse pre-B cell line 300-19 stably transfected with human CXCR4 (E. Oberlin, A. Amara, F. Bachelerie, C. Bessia, J.-L. Virelizier, F. Arenzana-Seisdedos, O, Schwartz, J.-M. Heard, I. Clark-Lewis, D. F. Legler, M. Loetscher, M. Baggiolini, B. Moser, Nature 1996, 382, 833-835; M. Loetscher, T. Geiser, T. O'Reilly, R. Zwalen, M. Baggiolini, B. Moser, J. Biol. Chem. 1994, 269, 232-237; M. D'Apuuo, A. Rolink, M. Loetscher, J. A. Hoxie, I. Clark-Lewis, F. Melchors, M. Baggiolini, B. Moser, Eur. J. Immunol. 1997, 27, 1788-1793). The cells were batch loaded with the Calcium 4 Assay kit (Molecular Devices) in assay buffer (Hanks Balanced salt solution [HBSS], 20 mM HEPES, pH 7.4, 0.1% BSA) for 1 h at room temperature and labeled cells were dispensed into black well assays plates (Costar No. 3603). Calcium mobilization induced by stromal-derived factor-1 (SDF-1) was measured in the Flexstation 384 (excitation: 485 nm; emission: 525 nm) for 90 seconds. Antagonist activity of peptides was determined by spiking the cells with compounds prior to SDF-1 addition. Dose response curves (compound concentration versus % maximum response for SDF-1) were determined for each antagonist and IC50 values were calculated by fitting the data to a four parameter logistic equation using SoftmaxPro 4.8 (Molecular Devices).

[2] = Cytotoxicity, MTT reduction assay, COS-7 cells; format: cell-based; conditions: African green monkey, COS-7 cells (CRL-1651), 12.5-50 μM
Method: (§1) Mouse pre-B cells were cultured in RPMI1640 plus 5% FBS, antibiotic/antimycotic, non essential amino acid, 50 μM β-mercaptoethanol and 1 mM natrium pyruvate. HELA cells were maintained in RPMI1640 plus 10% FBS, pen/strept and 2 mM L-glutamine. Cos-7 cells were grown in DMEM medium with […] glucose supplemented with 10% FCS, pen/strept and 2 mM L-glutamine. All cell lines were grown at 37° C. at 5% CO2. Cell media, media supplements, PBS-buffer, HEPES, antibiotic/antimycotic, pen/strept, non essential amino acid, L-glutamine, β-mercaptoethanol and sera were purchased from Gibco (Pailsey, UK). All fine chemicals were supplied by Merck (Darmstadt, Germany).
(§2) The cytotoxicity of the peptides to HELA cells (Acc57) and COS-7 cells (CRL-1651) was determined using the MTT reduction assay (T. Mossman, J. Immunol. Meth. 1983, 65, 55-63; M. V. Berridge, A. S. Tan, Arch. Biochem. Biophys. 1993, 303, 474-482). Briefly, the method was as follows: 4000 HELA cells/well and 3400 COS-7 cells/well were seeded and grown in 96-well microtiter plates for 24 h at 37° C. at 5% CO2. Thereafter, time zero (Tz) was determined by MTT reduction (see below). The supernatant of the remaining wells was discarded, and fresh medium and compounds in serial dilutions (12.5, 25 and 50 μM, triplicates) were pipetted into the wells. After incubation of the cells for 48 h at 37° C. at 5% CO2 the supernatant was discarded again and 100 μL MTT reagent (0.5 mg/mL in RPMI1640 and DMEM, respectively)/well was added. Following incubation at 37° C. for 2-4 h the media were aspirated and the cells were spiked (100 μL isopropanol/well). The absorbance of the solubilized formazan was measured at 595 nm (OD595peptide). For each concentration averages were calculated from triplicates. The percentage of growth was calculated as follows: (OD595peptide-OD595Tz-OD595Empty well)/(OD595Tz-OD595Empty well)×100%. The GI50 (Growth Inhibition) concentrations were calculated for each peptide by using a trend line function for the concentrations (50, 25, 12.5 and 0 μM), the corresponding percentages and the value 50, (=TREND (C50: C0, %50:%0,50).

[3] = test system: human red blood cells (hRBC); test: Hemolysis of human red blood cells; format: cell-based; conditions: 20% hRBC, 1 h, 37° C.
Method: The peptides were tested for their hemolytic activity against human red blood cells (hRBC). Fresh hRBC were washed three times with phosphate buffered saline (PBS) and centrifuged for 10 min at 2000×g. Compounds (100 μM) were incubated with 20% hRBC (v/v) for 1 h at 37° C. and shaking at 300 rpm. The final erythrocyte concentration was approximately 0.9×10^9 cells/mL. A value of 0% and 100% cell lyses, respectively, was determined by incubation of hRBC in the presence of PBS containing 0.001% acetic acid and 2.5% Triton X-100 in H2O, respectively. The samples were centrifuged, the supernatants were 8-fold diluted in PBS buffer and the optical densities (OD) were measured at 540 nm. The 100% lyses value (OD540H2O) gave an OD540 of approximately 0.5-1.0.
(§3) Percent hemolysis was calculated as follows: (OD540peptide/OD540H2O)×100%. 2.6. Plasma Stability

[4] = Cytotoxicity, MTT reduction assay, HELA cells; format: cell-based; conditions: human, HELA cells (Acc57), 12.5-50 μM
Method: as §1, §2

[5] = Plasma stability in mouse plasma; format: in vitro ADME; conditions: mouse plasma, 37° C.; for remaining at 24 h, 10 μM: 1440 min, read-out: mouse pl. cpd left at 1440 min; for mouse pl. T1/2 / half-life at 10 μM: up to 1440 min; for half-life at 10 μM: read-out: mouse pl. T1/2
Method: as §3
(§4) The stability of the peptides in human and mouse plasma was determined by applying the following method: 346.5 μL/deep well of freshly thawed human plasma (Basler Blutspendedienst) and mouse plasma (Harlan Sera-Lab, UK), respectively, were spiked with 3.5 μL/well of compound dissolved in DMSO/H2O ([…] [v/v], 1 mM, triplicate) and incubated at 37° C. At t=0, 15, 30, 60, 120, 240 and 1440 min aliquots of 50 μL were transferred to filtration plate wells containing 150 μL/well of 2% formic acid in acetonitrile. Following shaking for 2 min the occurred suspensions were filtrated by vacuum and 50 μL of each filtrate was mixed with 100 μL of 1% formic acid in H2O. After transfer to a propylene microtiter plate, the filtrates were analyzed by LC/MS as follows: Column: Waters, XBridge C18, mobile phases: (A) water+0.1% formic acid and (B) acetonitrile/water, 95/5 (v/v)+0.1% formic acid, gradient: 5%-100% (B) in 2 minutes, electrospray ionization, MRM detection (triple quadrupole). The peak areas were determined and triplicate values are averaged. The stability is expressed in percent of the initial value at t=0. (tx/t0×100). By using the TREND function of EXCEL (Microsoft Office 2003) T1/2 were determined.

[6] = Plasma stability in human plasma; format: in vitro ADME; conditions: human plasma, 37° C.; for remaining at 24 h, 10 μM: 1440 min, read-out: human pl. cpd left at 1440 min; for human pl. T1/2: up to 1440 min
Method: as §3, §4

[7] = mouse pre-B cell line 300-19 transfected with human CXCR4, SDF-1 induced Ca2+ mobilization, read-out: IC50% [nM] ± SD, CXCR4 receptor

T1 sequence (P61073 whole entry): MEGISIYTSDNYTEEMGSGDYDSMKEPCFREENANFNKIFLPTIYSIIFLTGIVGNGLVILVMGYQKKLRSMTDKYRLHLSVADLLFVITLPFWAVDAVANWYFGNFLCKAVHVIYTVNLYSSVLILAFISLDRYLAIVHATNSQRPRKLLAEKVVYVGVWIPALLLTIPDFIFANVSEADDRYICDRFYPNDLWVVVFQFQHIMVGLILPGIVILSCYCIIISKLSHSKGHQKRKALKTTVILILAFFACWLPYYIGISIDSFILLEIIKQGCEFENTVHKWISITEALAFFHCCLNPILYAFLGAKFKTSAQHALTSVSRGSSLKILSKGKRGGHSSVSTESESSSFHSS

Structure (SMILES)	IC50 [1] [nM]	GI50 at 48 h [2] [µM]	Hemolysis at 100 μM [3] [%]	GI50 at 48 h [4] [µM]	remaining at 24 h, 10 μM [5] [%]	mouse pl. T1/2 [5] [h]	remaining at 24 h, 10 μM [6] [%]	human pl. T1/2 [6] [h]	IC50 [1, 7] [nM]	half-life at 10 μM [5] [h]
CCCCCCCCCCCC(=O)NCC[C@@H]1NC(=O)[C@H]2CCCN2C(=O)[C@H](C)NC(=O)[C@H](CCCNC(=N)N)NC(=O)[C@@H]2CSSC[C@H](NC(=O)[C@H](Cc3ccc(O)cc3)NC(=O)[C@H](CCCNC(=N)N)NC1=O)C(=O)N[C@@H](Cc1ccc(O)cc1)C(=O)N[C@@H](CCC(N)=O)C(=O)N[C@@H](CCCCN)C(=O)N1CCC[C@@H]1C(=O)N1CCC[C@H]1C(=O)N[C@@H](Cc1ccc(O)cc1)C(=O)N[C@@H](Cc1c[nH]cn1)C(=O)N[C@@H](C)C(=O)N2 [Ex. 5] (cyclo(YHACRA[dP][Dab](Lauroyl)RYCYQK[dP]P); disulfide 4-11)	95.5 ± 12	> 43	0.3	> 50	73	24	100	24		
CCCCCCCCCCCCOc1ccc(C[C@@H]2NC(=O)[C@H](CCCNC(=N)N)NC(=O)[C@H](CCN)NC(=O)[C@H]3CCCN3C(=O)[C@H](C)NC(=O)[C@H](CCCNC(=N)N)NC(=O)[C@@H]3CSSC[C@H](NC2=O)C(=O)N[C@@H](Cc2ccc(O)cc2)C(=O)N[C@@H](CCC(N)=O)C(=O)N[C@@H](CCCCN)C(=O)N2CCC[C@@H]2C(=O)N2CCC[C@H]2C(=O)N[C@@H](Cc2ccc(O)cc2)C(=O)N[C@@H](Cc2c[nH]cn2)C(=O)N[C@@H](C)C(=O)N3)cc1 [Ex. 7] (cyclo(YHACRA[dP][Dab]RY(Dodecyl)CYQK[dP]P); disulfide 4-11)	59.8 ± 27	> 50	11.5	> 35	87	24	67	24		
CCCCCCCCCC[C@H]1NC(=O)[C@H](Cc2ccc(O)cc2)NC(=O)[C@@H]2CSSC[C@H](NC(=O)[C@H](C)NC(=O)[C@H](Cc3c[nH]cn3)NC(=O)[C@H](Cc3ccc(O)cc3)NC(=O)[C@@H]3CCCN3C(=O)[C@H]3CCCN3C(=O)[C@H](CCCCN)NC1=O)C(=O)N[C@@H](CCCNC(=N)N)C(=O)N[C@@H](C)C(=O)N1CCC[C@@H]1C(=O)N[C@@H](CCN)C(=O)N[C@@H](CCCNC(=N)N)C(=O)N[C@@H](Cc1ccc(O)cc1)C(=O)N2 [Ex. 9] (cyclo(YHACRA[dP][Dab]RYCY[X2]K[dP]P); disulfide 4-11)		> 50	2.2	> 13	76	24	100	24	91.3 ± 19	
CCCCCCCCCC(=O)NCC[C@@H]1NC(=O)[C@H](Cc2ccc(O)cc2)NC(=O)[C@@H]2CSSC[C@H](NC(=O)[C@H](C)NC(=O)[C@H](Cc3c[nH]cn3)NC(=O)[C@H](Cc3ccc(O)cc3)NC(=O)[C@@H]3CCCN3C(=O)[C@H]3CCCN3C(=O)[C@H](CCCCN)NC1=O)C(=O)N[C@@H](CCCNC(=N)N)C(=O)N[C@@H](C)C(=O)N1CCC[C@@H]1C(=O)N[C@@H](CCN)C(=O)N[C@@H](CCCNC(=N)N)C(=O)N[C@@H](Cc1ccc(O)cc1)C(=O)N2 [Ex. 10] (cyclo(YHACRA[dP][Dab]RYCY[Dab](Decanoyl)K[dP]P); disulfide 4-11)		> 50	1.0	> 50	63	24	85	24	8.1 ± 0.9	
CCCCCCCC(=O)NCCCC[C@@H]1NC(=O)[C@H](Cc2ccc(O)cc2)NC(=O)[C@@H]2CSSC[C@H](NC(=O)[C@H](Cc3ccc(O)cc3)NC(=O)[C@H](Cc3c[nH]cn3)NC(=O)[C@H](Cc3ccc(O)cc3)NC(=O)[C@@H]3CCCN3C(=O)[C@H]3CCCN3C(=O)[C@H](CCCCN)NC1=O)C(=O)N[C@@H](CO)C(=O)N[C@@H](C)C(=O)N1CCC[C@@H]1C(=O)N[C@@H](CCN)C(=O)N[C@@H](CCCNC(=N)N)C(=O)N[C@@H](Cc1ccc(O)cc1)C(=O)N2 [Ex. 12] (cyclo(YHYCSA[dP][Dab]RYCYK(Octanoyl)K[dP]P); disulfide 4-11)		> 50	0.2	> 50	46		88	24	1.8 ± 1	7
CCCCCCCC(=O)NCCCC[C@@H]1NC(=O)[C@H](Cc2ccc(O)cc2)NC(=O)[C@@H]2CSSC[C@H](NC(=O)[C@H](Cc3ccc(O)cc3)NC(=O)[C@H](Cc3c[nH]cn3)NC(=O)[C@H](Cc3ccc(O)cc3)NC(=O)[C@@H]3CCCN3C(=O)[C@@H](Cc3ccc(O)cc3)NC(=O)[C@H](CCCCN)NC1=O)C(=O)N[C@@H](CO)C(=O)N[C@@H](C)C(=O)N1CCC[C@@H]1C(=O)N[C@@H](CCN)C(=O)N[C@@H](CCCNC(=N)N)C(=O)N[C@@H](Cc1ccc(O)cc1)C(=O)N2 [Ex. 13] (cyclo(A[dP][Dab]RYCYK(Octanoyl)K[dY]PYHYCS); disulfide 6-15)		> 50	1.2	> 50	72		100	24	6.3 ± 2.7	22.4
